From patent publication US20250340557A1, “PYRIMIDINE DERIVATIVE” (ASKA PHARMACEUTICAL CO., LTD., priority 2022, published 2025) come the findings set out here.

As usually defined, the IC50 is the concentration that gives 50% inhibition.

A value given as a limit tells only on which side of the number the result lay.

The first experiment addresses T1, human mPGES-1 (Homo sapiens, UniProt O14684).
T1 construct: made in house; host or cells: COS-1 cells (transient transfection; microsomal fraction used as enzyme)
T1 sequence (O14684 1-152): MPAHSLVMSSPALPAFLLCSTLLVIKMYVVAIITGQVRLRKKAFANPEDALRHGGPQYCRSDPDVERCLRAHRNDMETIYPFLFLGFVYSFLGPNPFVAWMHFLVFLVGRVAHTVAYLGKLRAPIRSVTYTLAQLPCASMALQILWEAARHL
The experiment can be described thus: Test for mPGES-1 inhibitory activity (microsomal enzyme, PGE2 EIA). It is filed as biochemical. The note with it: microsomes from COS-1 cells transfected with human mPGES-1 cDNA; substrate PGH2 1 μM; 4° C., 4 minutes; PGE2 measured by EIA; read-out: h mPGES1 IC50. In a few lines:
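Enzyme source was microsomes from COS-1 cells transiently expressing human mPGES-1, in sodium phosphate pH 7.2 with 2.5 mM GSH, 1 mM EDTA and 2% DMSO final. After a 15 min preincubation with compound at 4 °C, 1 μM PGH2 (final) reacted for 4 min at 4 °C.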
As for `Cc1nc(-c2c(C(F)(F)F)ccc(CNC(=O)C3CCN(c4ccc5cccc(C)c5n4)CC3)c2F)[nH]c(=O)c1F` [Example 14, N-[2-fluoro-3-(5-fluoro-4-methyl-6-oxo-1,6-dihydropyrimidin-2-yl)-4-(trifluoromethyl)benzyl]-1-(8-methylquinolin-2-yl)piperidine-4-carboxamide], the IC50 was under 1 nM.
On the same count and under the same terms, the result for `Cc1cccc2ccc(N3CCC(C(=O)NCc4ccc(C(F)(F)F)c(-c5nc(C(F)(F)F)cc(=O)[nH]5)c4F)CC3)nc12` [Example 4, N-{2-fluoro-3-[6-oxo-4-(trifluoromethyl)-1,6-dihydropyrimidin-2-yl]-4-(trifluoromethyl)benzyl}-1-(8-methylquinolin-2-yl)piperidine-4-carboxamide] reads under 1 nM; that for `O=c1cc(C(F)(F)F)nc(-c2c(C(F)(F)F)ccc(CNC(=O)[C@H]3C[C@@H](OCc4ccccc4)C3)c2F)[nH]1` [Example 135, cis-3-(benzyloxy)-N-{2-fluoro-3-[6-oxo-4-(trifluoromethyl)-1,6-dihydropyrimidin-2-yl]-4-(trifluoromethyl)benzyl}cyclobutane-1-carboxamide], 6.4 nM.
`O=C(NCc1ccc(C(F)(F)F)c(-c2nc3c(c(=O)[nH]2)CCC3)c1F)C1CCN(c2ccc(C(F)(F)F)cn2)CC1` [Example 41, N-[2-fluoro-3-(4-oxo-4,5,6,7-tetrahydro-3H-cyclopenta[d]pyrimidin-2-yl)-4-(trifluoromethyl)benzyl]-1-[5-(trifluoromethyl)pyridin-2-yl]piperidine-4-carboxamide]: the IC50 was determined as 26 nM.
On the same count and under the same terms, as for `O=c1cc(C(F)(F)F)nc(-c2c(C(F)(F)F)ccc(CNC(=O)[C@H]3CC[C@H](OCc4ccc(Cl)cc4F)CC3)c2F)[nH]1` [Example 118, trans-4-[(4-chloro-2-fluorobenzyl)oxy]-N-{2-fluoro-3-[6-oxo-4-(trifluoromethyl)-1,6-dihydropyrimidin-2-yl]-4-(trifluoromethyl)benzyl}cyclohexane-1-carboxamide], the figure is under 1 nM.
Still for that read-out and setting: as for `Cc1cccc2ccc(N3CCC(C(=O)NCc4ccc(Cl)c(-c5nc(C(F)(F)F)cc(=O)[nH]5)c4F)CC3)nc12` [Example 31, N-{4-chloro-2-fluoro-3-[6-oxo-4-(trifluoromethyl)-1,6-dihydropyrimidin-2-yl]benzyl}-1-(8-methylquinolin-2-yl)piperidine-4-carboxamide], the figure is under 1 nM.
Take `Cc1nc(-c2c(C(F)(F)F)ccc(CNC(=O)[C@H]3CC[C@H](OCc4ccc(Cl)cc4F)CC3)c2F)[nH]c(=O)c1F` [Example 128, trans-4-[(4-chloro-2-fluorobenzyl)oxy]-N-[2-fluoro-3-(5-fluoro-4-methyl-6-oxo-1,6-dihydropyrimidin-2-yl)-4-(trifluoromethyl)benzyl]cyclohexane-1-carboxamide]: the IC50 was 13 nM.
For `CCc1nc(-c2c(C(F)(F)F)ccc(CNC(=O)C3CCN(c4ccc(C#N)cc4Cl)CC3)c2F)[nH]c(=O)c1F` [Example 90, 1-(2-chloro-4-cyanophenyl)-N-[3-(4-ethyl-5-fluoro-6-oxo-1,6-dihydropyrimidin-2-yl)-2-fluoro-4-(trifluoromethyl)benzyl]piperidine-4-carboxamide], the IC50 stood at 1.6 nM.
On to `COc1cc(N2CCC(C(=O)NCc3ccc(C(F)(F)F)c(-c4nc(C)cc(=O)[nH]4)c3F)CC2)ccc1Cl` [Example 93, 1-(4-chloro-3-methoxyphenyl)-N-[2-fluoro-3-(4-methyl-6-oxo-1,6-dihydropyrimidin-2-yl)-4-(trifluoromethyl)benzyl]piperidine-4-carboxamide], for which the half-maximal inhibitory concentration (IC50) came out at 1.4 nM.
On the same count and under the same terms, as for `O=C(NCc1ccc(C(F)(F)F)c(-c2nc(C(F)(F)F)cc(=O)[nH]2)c1F)C1CCN(c2cccc(C(F)(F)F)n2)CC1` [Example 22, N-{2-fluoro-3-[6-oxo-4-(trifluoromethyl)-1,6-dihydropyrimidin-2-yl]-4-(trifluoromethyl)benzyl}-1-[6-(trifluoromethyl)pyridin-2-yl]piperidine-4-carboxamide], the figure is 4.9 nM; as for `Cc1cc(=O)[nH]c(-c2c(C(F)(F)F)ccc(CNC(=O)[C@H]3CC[C@H](OCc4ccccc4Cl)CC3)c2F)n1` [Example 108, trans-4-[(2-chlorobenzyl)oxy]-N-[2-fluoro-3-(4-methyl-6-oxo-1,6-dihydropyrimidin-2-yl)-4-(trifluoromethyl)benzyl]cyclohexane-1-carboxamide], 38 nM.

Still in this experiment, the particulars now being: microsomes of COS-1 cells transfected with human mPGES-1 cDNA; PGH2 1 μM; 4° C., 4 minutes; PGE2 by EIA; read-out: h mPGES1 IC50.
For the molecule `Cc1nc(-c2c(C(F)(F)F)ccc(CNC(=O)[C@H]3C[C@H](OCc4cc(F)cc(F)c4)C3)c2F)[nH]c(=O)c1F` [Example 221, trans-3-[(3,5-difluorobenzyl)oxy]-N-[2-fluoro-3-(5-fluoro-4-methyl-6-oxo-1,6-dihydropyrimidin-2-yl)-4-(trifluoromethyl)benzyl]cyclobutane-1-carboxamide], the half-maximal inhibitory concentration (IC50) is 14 nM.
On the same count and under the same terms, the result for `O=c1cc(C(F)(F)F)nc(-c2c(C(F)(F)F)ccc(CNC(=O)[C@H]3C[C@@H](OCc4cc(F)cc(Cl)c4)C3)c2F)[nH]1` [Example 160, cis-3-[(3-chloro-5-fluorobenzyl)oxy]-N-{2-fluoro-3-[6-oxo-4-(trifluoromethyl)-1,6-dihydropyrimidin-2-yl]-4-(trifluoromethyl)benzyl}cyclobutane-1-carboxamide] reads under 1 nM; that for `Cc1cc(=O)[nH]c(-c2c(C(F)(F)F)ccc(CNC(=O)[C@H]3C[C@H](OCc4cccc(C(F)(F)F)c4)C3)c2F)n1` [Example 182, trans-N-[2-fluoro-3-(4-methyl-6-oxo-1,6-dihydropyrimidin-2-yl)-4-(trifluoromethyl)benzyl]-3-{[3-(trifluoromethyl)benzyl]oxy}cyclobutane-1-carboxamide], 12 nM; that for `O=c1cc(C(F)F)nc(-c2c(C(F)(F)F)ccc(CNC(=O)[C@H]3C[C@H](OCc4cc(Cl)ccc4F)C3)c2F)[nH]1` [Example 175, trans-3-[(5-chloro-2-fluorobenzyl)oxy]-N-{3-[4-(difluoromethyl)-6-oxo-1,6-dihydropyrimidin-2-yl]-2-fluoro-4-(trifluoromethyl)benzyl}cyclobutane-1-carboxamide], under 1 nM.
Still for that read-out and setting: as for `Cc1nc(-c2c(C(F)(F)F)ccc(CNC(=O)[C@H]3C[C@H](OCc4ccccc4C(F)(F)F)C3)c2F)[nH]c(=O)c1F` [Example 215, trans-N-[2-fluoro-3-(5-fluoro-4-methyl-6-oxo-1,6-dihydropyrimidin-2-yl)-4-(trifluoromethyl)benzyl]-3-{[2-(trifluoromethyl)benzyl]oxy}cyclobutane-1-carboxamide], the figure is 6.9 nM.
In the case of `CCc1nc(-c2c(C(F)(F)F)ccc(CNC(=O)[C@H]3C[C@H](OCc4ccc(F)c(Cl)c4)C3)c2F)[nH]c(=O)c1F` [Example 244, trans-3-[(3-chloro-4-fluorobenzyl)oxy]-N-[3-(4-ethyl-5-fluoro-6-oxo-1,6-dihydropyrimidin-2-yl)-2-fluoro-4-(trifluoromethyl)benzyl]cyclobutane-1-carboxamide], the IC50 was under 1 nM.
On the same count and under the same terms, the result for `Cc1cc(=O)[nH]c(-c2c(C(F)(F)F)ccc(CNC(=O)[C@H]3C[C@H](OCc4ccc(C(F)(F)F)cc4)C3)c2F)n1` [Example 183, trans-N-[2-fluoro-3-(4-methyl-6-oxo-1,6-dihydropyrimidin-2-yl)-4-(trifluoromethyl)benzyl]-3-{[4-(trifluoromethyl)benzyl]oxy}cyclobutane-1-carboxamide] reads 10 nM; that for `O=c1cc(C(F)F)nc(-c2c(C(F)(F)F)ccc(CNC(=O)[C@H]3C[C@H](OCc4cccc(F)c4F)C3)c2F)[nH]1` [Example 172, trans-3-[(2,3-difluorobenzyl)oxy]-N-{3-[4-(difluoromethyl)-6-oxo-1,6-dihydropyrimidin-2-yl]-2-fluoro-4-(trifluoromethyl)benzyl}cyclobutane-1-carboxamide], under 1 nM.
With `O=c1cc(C(F)F)nc(-c2c(C(F)(F)F)ccc(CNC(=O)[C@H]3C[C@H](OCc4ccc(Cl)cc4F)C3)c2F)[nH]1` [Example 168, trans-3-[(4-chloro-2-fluorobenzyl)oxy]-N-{3-[4-(difluoromethyl)-6-oxo-1,6-dihydropyrimidin-2-yl]-2-fluoro-4-(trifluoromethyl)benzyl}cyclobutane-1-carboxamide], the IC50 is under 1 nM.
The same measure, in the same setting: as for `Cc1cc(=O)[nH]c(-c2c(C(F)(F)F)ccc(CNC(=O)[C@H]3C[C@H](OCc4cccc(F)c4F)C3)c2F)n1` [Example 189, trans-3-[(2,3-difluorobenzyl)oxy]-N-[2-fluoro-3-(4-methyl-6-oxo-1,6-dihydropyrimidin-2-yl)-4-(trifluoromethyl)benzyl]cyclobutane-1-carboxamide], the figure is 13 nM.
Still for that read-out and setting: as for `O=c1cc(C(F)(F)F)nc(-c2c(C(F)(F)F)ccc(CNC(=O)[C@H]3C[C@H](OCc4cccc(F)c4F)C3)c2F)[nH]1` [Example 153, trans-3-[(2,3-difluorobenzyl)oxy]-N-{2-fluoro-3-[6-oxo-4-(trifluoromethyl)-1,6-dihydropyrimidin-2-yl]-4-(trifluoromethyl)benzyl}cyclobutane-1-carboxamide], the figure is under 1 nM; as for `Cc1nc(-c2c(C(F)(F)F)ccc(CNC(=O)[C@H]3C[C@H](OCc4ccc(Cl)cc4F)C3)c2F)[nH]c(=O)c1F` [Example 219, trans-3-[(4-chloro-2-fluorobenzyl)oxy]-N-[2-fluoro-3-(5-fluoro-4-methyl-6-oxo-1,6-dihydropyrimidin-2-yl)-4-(trifluoromethyl)benzyl]cyclobutane-1-carboxamide], 15 nM.
